# Measurements taken from patent publication US20240067651A1 (Biohaven Therapeutics Ltd., priority 2019, published 2024).
# Experiments:
# [1] = Caco-2 Permeability Assay; assay type: in vitro ADME, human; conditions: human
# Summary of the method: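 Bidirectional transport at 37 °C for 90 min, 10 μM donor concentration, with or without Pgp inhibitor, across 21-day Caco-2 monolayers with TEER >600 […] in HEPES-buffered HBSS, pH 7.4. LC-MS/MS of donor and receiver samples gives Papp, B→A/A→B efflux ratio and mass recovery.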
# [2] = Stability in Simulated Gastric Fluid (SGF); assay type: in vitro ADME; set-up: key: % parent compound remaining relative to 0-minute sample
# Summary of the method: (§1)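 2 μg/mL final; SGF + pepsin pH 1.2 or SIF + pancreatin pH 6.8; 37° C, 150 rpm, 0–60 min. ACN quench with propranolol IS, LC-MS/MS. % parent vs 0 min; t1/2 from ln plot.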
# [3] = Stability in Simulated Intestinal Fluid (SIF); assay type: in vitro ADME; set-up: key: % parent compound remaining relative to 0-minute sample
# Summary of the method: as §1
# [4] = Plasma Stability; assay type: in vitro ADME, human
# Summary of the method: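 Parent compound quantified by LC-MS/MS after acetonitrile precipitation, reported as percent of control remaining (triplicate). Incubation: 1 hour, 37° C, fresh human plasma, compound at 1 μM.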
# [5] = Caco-2, pH 7.4, Caco-2 monolayer
# [6] = % @ 1 h (remaining) in simulated gastric fluid
# [7] = % @ 1 h (remaining) in simulated intestinal fluid
# [8] = % @ 1 h (remaining) in human plasma
# [9] = % remaining at 1 h in simulated gastric fluid
# [10] = % remaining at 1 h in simulated intestinal fluid
# [11] = % remaining at 1 h in human plasma
# [12] = Caco-2, pH 7.4, Caco-2 monolayer, the 15th table
# [13] = % remaining at 1 h in simulated gastric fluid, the 15th table
# [14] = % remaining at 1 h in simulated intestinal fluid, the 15th table
# [15] = % remaining at 1 h in human plasma, the 15th table
# [16] = simulated gastric fluid, remaining at 1 h
# [17] = simulated intestinal fluid, remaining at 1 h
# [18] = Caco-2, pH 7.4, donor 10 μM, 90 minutes, 37° C., direction not given
# [19] = % remaining at 1 h, SGF with pepsin pH 1.2, 2 μg/mL, 37° C.
# [20] = % remaining at 1 h, SIF with pancreatin pH 6.8, 2 μg/mL, 37° C.
# [21] = % remaining at 1 h, human plasma, 1 μM, 37° C.
structure (smiles),measurement,setting,value
CC(C)CN(C)C(=O)OCSc1nc(=O)c2c(ccn2COC(=O)N(C)CC(C)C)n1CCOC(C)C [Example 161],"Papp at 90 min, 10 µM",[1]; [5],31.3 ×10⁻⁶ cm/s
same,SGF,[2]; [6],80% @ 1 h
same,SIF,[3]; [7],80% @ 1 h
same,human Plasma stability,[4]; [8],99% @ 1 h
"CC(C)OCCn1c(=S)n(COC(=O)CCCCOC(=O)CN)c(=O)c2c1ccn2COC(=O)CCCCOC(=O)CN.O=C(O)C(F)(F)F.O=C(O)C(F)(F)F [Example 332, bis (trifluoroacetic acid) {3-[{{5-[(2-aminoacetyl)oxy]pentanoyl}oxy)meth-yl]-4-oxo-1-[2-(propan-2-yloxy)ethyl]-2-sulfanylidene-1H,2H,3H,4H,5H-pyrrolo[3,2-d]pyrimidin-5-yl}methyl 5-[(2-aminoacetyl)oxy]pentanoate]","Papp at 90 min, 10 µM","[1]; Caco-2, pH 7.4",< 0.073 ×10⁻⁶ cm/s
same,SGF,[2]; % remaining @ 1 h,91% @ 1 h
same,SIF,[3]; % remaining @ 1 h,4% @ 1 h
same,human Plasma stability,[4]; % remaining @ 1 h,4% @ 1 h
CCCC(=O)OCn1ccc2c1c(=O)[nH]c(=S)n2CCOC(C)C [Example 154],"Papp at 90 min, 10 µM",[1]; [5],4.03 ×10⁻⁶ cm/s
same,SGF,[2]; [6],82% @ 1 h
same,SIF,[3]; [7],0% @ 1 h
same,human Plasma stability,[4]; [8],9% @ 1 h
CC(C)OCCn1c(=S)[nH]c(=O)c2c1ccn2COC(=O)CCNC(=O)C1CCCN1C(=O)OC(C)C.O=C(O)C(F)(F)F (centres unmarked) [Example 68],"Papp at 90 min, 10 µM",[1]; [5],2.26 ×10⁻⁶ cm/s
same,SGF,[2]; [9],76% remaining
same,SIF,[3]; [10],69% remaining
same,human Plasma stability,[4]; [11],100%
CC(C)OCCn1c(=S)[nH]c(=O)c2c1ccn2COC(=O)CCCCCCCCCCCCCCC(=O)OC(C)C [Example 256],"Papp at 90 min, 10 µM",[1]; [5],0.25 ×10⁻⁶ cm/s
same,SGF,"[2]; simulated gastric fluid, after 1 h",99% remaining
same,SIF,"[3]; simulated intestinal fluid, after 1 h",9% remaining
same,human Plasma stability,"[4]; human plasma, after 1 h",88% remaining
CC(C)OCCn1c(=S)[nH]c(=O)c2c1ccn2COC(=O)Oc1ccccc1F [Example 238],"Papp at 90 min, 10 µM",[1]; [5],< 0.339 ×10⁻⁶ cm/s
same,SGF,"[2]; simulated gastric fluid, at 1 h",13% remaining
same,SIF,"[3]; simulated intestinal fluid, at 1 h",1% remaining
same,human Plasma stability,"[4]; human plasma, at 1 h",1% remaining
CCN(C(=O)OCSc1nc(=O)c2c(ccn2COC(=O)N(CC)C(C)C)n1CCOC(C)C)C(C)C [Example 189],"Papp at 90 min, 10 µM",[1]; [12],30.6 ×10⁻⁶ cm/s
same,SGF,[2]; [13],99% @ 1 h
same,SIF,[3]; [14],97% @ 1 h
same,human Plasma stability,[4]; [15],98% @ 1 h
CCCCCOC(=O)OCn1ccc2c1c(=O)nc(S)n2CCOC(C)C [Example 216],"Papp at 90 min, 10 µM","[1]; Caco-2, pH 7.4, Caco-2 monolayer, the 17th table",4.59 ×10⁻⁶ cm/s
same,SGF,"[2]; % remaining at 1 h in simulated gastric fluid, the 17th table",91% remaining
same,SIF,"[3]; % remaining at 1 h in simulated intestinal fluid, the 17th table",1% remaining
same,human Plasma stability,"[4]; % remaining at 1 h in human plasma, the 17th table",1% remaining
"CC(C)C[C@H](N)C(=O)OCCCCC(=O)OCn1ccc2c1c(=O)[nH]c(=S)n2CCOC(C)C.O=C(O)C(F)(F)F [Example 345, trifluoroacetic acid 5-oxo-5-({4-oxo-1-[2-(propan-2-yloxy)ethyl]-2-sulfanylidene-1H,2H,3H,4H,5H-pyrrolo[3,2-d]pyrimidin-5-yl}methoxy)pentyl (2S)-2-amino-4-methylpentanoate]","Papp at 90 min, 10 µM","[1]; Caco-2, pH 7.4",< 0.0662 ×10⁻⁶ cm/s
same,SGF,[2]; % remaining @ 1 h,71% remaining
same,SIF,[3]; % remaining @ 1 h,2% remaining at
same,human Plasma stability,[4]; % remaining @ 1 h,77% remaining
"CC(C)OCCn1c(=S)[nH]c(=O)c2c1ccn2COC(=O)[C@H](NC(=O)OC(C)(C)C)C(C)C [Example 298, {4-oxo-1-[2-(propan-2-yloxy)ethyl]-2-sulfanylidene-1H,2H,3H,4H,5H-pyrrolo[3,2-d]pyrimidin-5-yl}methyl (2R)-2-{[(tert-butoxy)carbonyl]amino}-3-methylbutanoate]","Papp at 90 min, 10 µM","[1]; Caco-2, pH 7.4",33.5 ×10⁻⁶ cm/s
same,SGF,[2]; % remaining @ 1 h,99% @ 1 h
same,SIF,[3]; % remaining @ 1 h,59% @ 1 h
same,human Plasma stability,[4]; % remaining @ 1 h,99% @ 1 h
CC(C)OCCn1c(=S)[nH]c(=O)c2c1ccn2COC(=O)CCNC(=O)[C@H](CCc1ccccc1)NC(=O)OC(C)(C)C.O=C(O)C(F)(F)F [Example 19],"Papp at 90 min, 10 µM",[1]; [5],11.7 ×10⁻⁶ cm/s
same,SGF,[2]; [9],82% remaining
same,SIF,[3]; [10],57% remaining
same,human Plasma stability,[4]; [11],42% remaining
CC(C)OCCn1c(SCOC(=O)NCc2ccccc2)nc(=O)c2c1ccn2C(=O)NCc1ccccc1 [Example 193],"Papp at 90 min, 10 µM",[1]; [12],31.6 ×10⁻⁶ cm/s
same,SGF,[2]; [13],98% remaining
same,SIF,[3]; [14],57% remaining
same,human Plasma stability,[4]; [15],95% remaining
"CC(C)C[C@H](N)C(=O)OCCC(=O)OCn1ccc2c1c(=O)[nH]c(=S)n2CCOC(C)C.O=C(O)C(F)(F)F [Example 367, trifluoroacetic acid 3-oxo-3-({4-oxo-1-[2-(propan-2-yloxy)ethyl]-2-sulfanylidene-1H,2H,3H,4H,5H-pyrrolo [3,2-d]pyrimidin-5-yl}methoxy)propyl (2S)-2-amino-4-methylpentanoate]","Papp at 90 min, 10 µM",[1]; [5],< 0.108 ×10⁻⁶ cm/s
same,SGF,[2]; [16],100% remaining
same,SIF,[3]; [17],0% remaining
same,human Plasma stability,"[4]; human plasma, remaining at 1 h",1% remaining
"CC(C)OCCn1c(SCOC(=O)N(C)c2cccc(F)c2)nc(=O)c2[nH]ccc21 [Example 210, ({4-oxo-1-[2-(propan-2-yloxy)ethyl]-1H,4H,5H-pyrrolo[3,2-d]pyrimidin-2-yl}sulfanyl)methyl N-(3-fluorophenyl)-N-methylcarbamate]","Papp at 90 min, 10 µM",[1]; [18],18.3 ×10⁻⁶ cm/s
same,SGF,[2]; [19],100% remaining
same,SIF,[3]; [20],97% remaining
same,human Plasma stability,[4]; [21],97% remaining
"CC(C)OCCn1c(=S)[nH]c(=O)c2c1ccn2COP(=O)(O)O [Example 83, ({4-oxo-1-[2-(propan-2-yloxy)ethyl]-2-sulfanylidene-1H,2H,3H,4H,5H-pyrrolo[3,2-d]pyrimidin-5-yl}methoxy)phosphonic acid]","Papp at 90 min, 10 µM",[1]; [18],< 1.07 ×10⁻⁶ cm/s
same,SGF,[2]; [19],91%
same,SIF,[3]; [20],100%
same,human Plasma stability,[4]; [21],95% @
"CC(C)OCCn1c(SCOC(=O)OC(C)C)nc(=O)c2c1ccn2COC(=O)OC(C)C [Example 91, {4-oxo-2-[{{[(propan-2-yloxy)carbonyl]oxy}methyl)sulfanyl]-1-[2-(propan-2-yloxy)ethyl]-1H,4H,5H-pyrrolo[3,2-d]pyrimidin-5-yl}methyl propan-2-yl carbonate]","Papp at 90 min, 10 µM",[1]; [18],14.2 ×10⁻⁶ cm/s
same,SGF,[2]; [19],98% remaining
same,SIF,[3]; [20],99% remaining
same,human Plasma stability,[4]; [21],1% remaining
CC(C)OCCn1c(=S)n(COC(=O)OCCOCCNC(=O)OC(C)(C)C)c(=O)c2c1ccn2COC(=O)OCCOCCNC(=O)OC(C)(C)C [Example 122],"Papp at 90 min, 10 µM",[1]; [5],19.3 ×10⁻⁶ cm/s
same,SGF,[2]; [9],85% remaining
same,SIF,[3]; [10],22% remaining
same,human Plasma stability,[4]; [11],50% remaining
CNCC(=O)NCCC(=O)OCn1ccc2c1c(=O)[nH]c(=S)n2CCOC(C)C.O=C(O)C(F)(F)F [Example 56],"Papp at 90 min, 10 µM",[1]; [5],0.144 ×10⁻⁶ cm/s
same,SGF,[2]; [9],64% remaining
same,SIF,[3]; [10],1% remaining
same,human Plasma stability,[4]; [11],0% remaining
CC[C@H](C)[C@H](N)C(=O)NCCC(=O)OCn1ccc2c1c(=O)[nH]c(=S)n2CCOC(C)C.O=C(O)C(F)(F)F [Example 38],"Papp at 90 min, 10 µM",[1]; [5],0.31 ×10⁻⁶ cm/s
same,SGF,[2]; [9],92% remaining
same,SIF,[3]; [10],84% remaining
same,human Plasma stability,[4]; [11],65% remaining
"CC(C)C[C@@H](N)C(=O)OCCC(=O)OCn1ccc2c1c(=O)[nH]c(=S)n2CCOC(C)C.O=C(O)C(F)(F)F [Example 368, trifluoroacetic acid 3-oxo-3-({4-oxo-1-[2-(propan-2-yloxy)ethyl]-2-sulfanylidene-1H,2H,3H,4H,5H-pyrrolo[3,2-d]pyrimidin-5-yl}methoxy)propyl (2R)-2-amino-4-methylpentanoate]","Papp at 90 min, 10 µM",[1]; [5],0.12 ×10⁻⁶ cm/s
same,SGF,[2]; [16],100% remaining
same,SIF,[3]; [17],1% remaining
same,human Plasma stability,"[4]; human plasma, remaining at 1 h",1% remaining
